Molecular target: T1, Phosphorylated rglkA (Staphylococcus aureus, UniProt H6UH58)
T1 construct: gene glcK; recombinant from clone glkA1, nickel-column purified (His tag implied); phosphorylated in vitro by S. aureus rBYK (tyrosine; site not determined)
Experiment: coupled glucose-6-phosphate dehydrogenase assay, […] nm; Hanes-Woolf plot
Format: biochemical
Settings: ATP, 0.5 mM MgCl2, NADP, 60 mM Tris-HCl pH 7.5, 37 °C; enzyme phosphorylated by BYK

T1 sequence (H6UH58 entry or part of it): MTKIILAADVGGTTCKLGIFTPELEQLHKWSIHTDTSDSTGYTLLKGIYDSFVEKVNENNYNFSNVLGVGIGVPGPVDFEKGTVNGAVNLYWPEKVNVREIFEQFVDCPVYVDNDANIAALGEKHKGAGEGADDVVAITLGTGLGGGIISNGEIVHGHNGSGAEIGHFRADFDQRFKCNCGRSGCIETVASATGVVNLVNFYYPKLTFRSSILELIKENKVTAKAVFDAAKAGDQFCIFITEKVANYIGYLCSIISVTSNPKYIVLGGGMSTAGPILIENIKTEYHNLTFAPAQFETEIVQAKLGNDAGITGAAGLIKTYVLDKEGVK

`OC[C@H]1OC(O)[C@H](O)[C@@H](O)[C@@H]1O` (stereo partly shown) [glucose] showed a Km of 5.18 ± 0.5 mM.
